# Assay results taken from patent publication US12391698B2, “Substituted piperidines and piperazines and methods for the treatment of CNS disorders” (SUVEN LIFE SCIENCES LIMITED, priority 2022, dated 2025).
# Where a name gives a salt, the structure may show the parent alone. Read-outs that look alike come from different tables or passages of the source.
# Key:
# [1] = target: T1, cloned human 5-HT1A receptor (Homo sapiens, UniProt P08908); experiment: Determination of Ki at 5-HT1A receptor (radioligand binding, [3H]-8-Hydroxy DPAT); settings: HEK293-EBNA recombinant cells; [3H]-8-Hydroxy DPAT 0.8 nM; read-out: Ki h5-HT1A
# T1 construct: expressed in transfected cells; host or cells: HEK293-EBNA
# T1 sequence (P08908 1-422): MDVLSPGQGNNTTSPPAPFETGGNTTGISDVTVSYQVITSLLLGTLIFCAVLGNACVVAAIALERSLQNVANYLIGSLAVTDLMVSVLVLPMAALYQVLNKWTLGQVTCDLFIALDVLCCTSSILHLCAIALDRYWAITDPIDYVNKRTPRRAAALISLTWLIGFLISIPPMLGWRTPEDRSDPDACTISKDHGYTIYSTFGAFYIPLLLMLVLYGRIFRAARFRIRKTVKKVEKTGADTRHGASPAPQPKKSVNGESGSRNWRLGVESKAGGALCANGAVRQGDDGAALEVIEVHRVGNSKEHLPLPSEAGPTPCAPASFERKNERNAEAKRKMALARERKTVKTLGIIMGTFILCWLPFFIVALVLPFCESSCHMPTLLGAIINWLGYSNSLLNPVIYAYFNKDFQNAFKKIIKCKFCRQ
# Protocol: (§1) Compounds were tested according to the following procedure.
# (§2) • Receptor source: Recombinant mammalian cells (HEK293-EBNA) • Radioligand: [^3H]-8-Hydroxy DPAT (200 Ci/mmol) • Final ligand concentration: 0.8 nM • Non-specific determinant: 0.1 mM U92016A • Reference compound: U92016A • Positive control: U92016A Incubation Conditions:
# (§3) Reactions were carried out in buffer with pH 7.4 containing 50 mM Tris-HCl, 0.5 mM EDTA, 10 mM MgSO4, 0.1% Ascorbic acid for 2 h at r.t. The reaction was terminated by rapid vacuum filtration onto the glass fiber filters. Radioactivity trapped onto the filters was determined and compared to the control values in order to ascertain any interactions of the test compound(s) with cloned human 5-HT1A receptor binding site.
# [2] = target: T2, cloned human 5-HT2A receptor (Homo sapiens, UniProt P28223); experiment: Determination of Ki at 5-HT2A receptor (radioligand binding, [3H]-Ketanserine); settings: CHO-K1 recombinant cells; [3H]-Ketanserine 1.25 nM; read-out: Ki h5-HT2A
# T2 construct: expressed in transfected cells; host or cells: CHO-K1
# Protocol: as §1
# as §2, with “(CHO-K1)” for “(HEK293-EBNA)”, “[^3H]-Ketanserine (41.9” for “[^3H]-8-Hydroxy DPAT (200”, “1.25” for “0.8”, “1-Napthyl piperazine (1-NP)” for “U92016A”
# as §3, with “4” for “0.5”, “CaCl2),” for “EDTA, 10 mM MgSO4,”, “1” for “2”, “5-HT2A” for “5-HT1A”
# [3] = target: cloned human SERT receptor (Homo sapiens, UniProt P31645); experiment: Determination of Ki at SERT receptor (SPA binding, [3H]-Citalopram); settings: HEK293 recombinant cells, [3H]-Citalopram 2 nM, read-out: Ki hSERT
# Protocol: as §1
# • Receptor source: Recombinant mammalian cells (HEK293) • Radioligand: [^3H]-Citalopram (80.8 Ci/mmol) • Final ligand concentration: 2 nM • Non-specific determinant: 0.1 mM Venlafaxine • Reference compound: Venlafaxine • Positive control: Venlafaxine Incubation Conditions:
# Reactions were carried out in buffer with pH 7.4 containing 50 mM Tris-HCl, 150 mM NaCl, 5 mM KCl and scintillation proximity assay (SPA) beads (0.1 mg/well) for 3 h at r.t. Radioactivity proximal to SPA beads was determined by scintillation proximity assay and compared to the control values in order to ascertain any interactions of the test compound(s) with cloned human SERT receptor binding site.
# Reference: Journal of Pharmacology and Experimental Therapeutics, 1987, 242 (1), 364-371.
# [4] = target: T3, hD2S (cloned human dopamine D2S receptor) (Homo sapiens, UniProt P14416); experiment: Determination of Ki at D2S receptor (radioligand binding, [3H]-Raclopride); settings: CHO-K1 recombinant cells; [3H]-Raclopride 4 nM; read-out: Ki hD2S
# T3 construct: expressed in transfected cells; host or cells: CHO-K1
# Protocol: as §1
# • Receptor source: Recombinant mammalian cells (CHO-K1) • Radioligand: [^3H]-Raclopride (80.8 Ci/mmol) • Final ligand concentration: 4 nM • Non-specific determinant: 0.1 mM Haloperidol • Reference compound: Haloperidol • Positive control: Haloperidol Incubation Conditions:
# as §3, with “120” for “0.5”, “NaCl, 5” for “EDTA, 10”, “KCl, 5 mM MgCl2, 1 mM EDTA” for “MgSO4, 0.1% Ascorbic acid”, “dopamine […]” for “5-HT1A”
# [5] = Rodent pharmacokinetic study; type: in vivo, Male Wistar rats; settings: rat, plasma, mean ± S.D, n = 3
# Protocol: Male Wistar rats (260±50 g) were used as experimental animals. Animals were housed individually in polypropylene cage. Two days prior to study, male Wistar rats were anesthetized with isoflurane for surgical placement of jugular vein catheter. Rats were randomly divided for oral (3 mg/kg) and intravenous (1 mg/kg) dosing (n=3/group) and fasted overnight before oral dosing (p.o.). However, food and water were provided ad libitum to the rats allocated for intravenous dosing.
# At pre-determined time points, blood samples were collected through jugular vein and replenished with an equivalent volume of normal saline. Collected blood was transferred into a labeled eppendorf tube containing 10 μL of heparin as an anticoagulant. Typically blood samples were collected at 0.08, 0.25, 0.5, 1, 2, 4, 6, 8, and 24 h post dose. Blood samples were centrifuged at 4000 rpm for 10 min. Plasma was separated and stored frozen at −80° C. until analysis. The concentrations of the test compounds were quantified in plasma by qualified LC-MS/MS method using suitable extraction technique. The test compounds were quantified in the calibration range around 1-1000 ng/mL in plasma. Study samples were analyzed using calibration samples in the batch and quality control samples spread across the batch.
# Pharmacokinetic parameters Cmax, AUCt, t1/2. Clearance and Bioavailability (F) were calculated using standard non-compartmental model by using Phoenix WinNonlin 6.0.4 version software package.
# [6] = Rodent brain penetration study; type: in vivo; settings: rat, brain/plasma, po, fed male Wistar rats, 3 mg/kg p.o., mean ± S.D, n = 3, read-out: Rat Brain Penetration (Cbrain/Cplasma) at 3 mg/kg, p.o. @ 1 h
# Protocol: Male Wistar rats (260±40 g) were used as experimental animals. Three animals were housed in each cage. Animals were given water and food ad libitum throughout the experiment and maintained on a 12 h light/dark cycle.
# Brain penetration was determined in discrete manner in rats. One day prior to dosing, male Wistar rats were acclimatized and randomly grouped according to their body weight. At each time point (0.50, 1 and 2 h), n=3 animals were used.
# The test compounds were suitably preformulated and administered orally at (free base equivalent) 3 mg/kg. Blood samples were removed via cardiac puncture under isoflurane anesthesia. The animals were sacrificed to collect brain tissue. Plasma was separated and brain samples were homogenized. Plasma and brain homogenates were stored frozen at −20° C. until analysis. The concentrations of the test compounds in plasma and brain were determined using LC-MS/MS method.
# The test compounds were quantified in plasma and brain homogenate by qualified LC-MS/MS method using suitable extraction technique in the calibration range of 1-500 ng/mL. Study samples were analyzed using calibration samples in the batch and quality control samples spread across the batch. Extent of brain-plasma ratio (Cbrain/Cplasma) was calculated.
# [7] = intravenous (bolus) 1 mg/kg, male Wistar rats
# [8] = oral (gavage) 3 mg/kg, fasted male Wistar rats
# T2 sequence (P28223 whole entry): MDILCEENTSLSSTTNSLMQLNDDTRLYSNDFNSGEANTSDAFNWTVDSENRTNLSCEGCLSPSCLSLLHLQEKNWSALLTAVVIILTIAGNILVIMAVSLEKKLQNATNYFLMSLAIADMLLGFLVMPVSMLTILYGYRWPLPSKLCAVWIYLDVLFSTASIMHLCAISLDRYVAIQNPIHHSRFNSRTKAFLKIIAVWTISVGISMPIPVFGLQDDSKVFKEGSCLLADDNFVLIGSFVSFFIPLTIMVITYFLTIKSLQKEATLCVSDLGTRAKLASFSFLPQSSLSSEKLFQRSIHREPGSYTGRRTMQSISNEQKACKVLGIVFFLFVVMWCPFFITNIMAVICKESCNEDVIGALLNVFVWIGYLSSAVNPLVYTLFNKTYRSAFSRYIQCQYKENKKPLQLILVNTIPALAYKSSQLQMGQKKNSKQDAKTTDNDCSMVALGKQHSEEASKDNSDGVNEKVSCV
# Sequence of cloned human SERT receptor (P31645 whole entry): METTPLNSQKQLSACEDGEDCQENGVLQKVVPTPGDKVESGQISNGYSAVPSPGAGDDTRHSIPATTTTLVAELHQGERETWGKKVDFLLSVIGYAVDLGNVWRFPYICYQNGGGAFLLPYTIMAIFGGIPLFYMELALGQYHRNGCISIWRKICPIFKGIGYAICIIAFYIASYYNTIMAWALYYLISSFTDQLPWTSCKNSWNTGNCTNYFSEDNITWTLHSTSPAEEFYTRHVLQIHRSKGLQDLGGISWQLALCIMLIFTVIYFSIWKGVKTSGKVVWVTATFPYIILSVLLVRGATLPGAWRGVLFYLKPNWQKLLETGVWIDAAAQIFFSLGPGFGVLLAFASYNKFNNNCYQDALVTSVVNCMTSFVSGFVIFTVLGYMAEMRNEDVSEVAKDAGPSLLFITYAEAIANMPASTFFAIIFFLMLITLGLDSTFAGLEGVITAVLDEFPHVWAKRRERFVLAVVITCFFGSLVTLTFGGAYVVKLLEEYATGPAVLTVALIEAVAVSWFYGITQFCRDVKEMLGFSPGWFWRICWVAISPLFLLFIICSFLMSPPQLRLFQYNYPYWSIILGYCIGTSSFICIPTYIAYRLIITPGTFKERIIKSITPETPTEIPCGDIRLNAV
# T3 sequence (P14416 1-414 isoform P14416-2): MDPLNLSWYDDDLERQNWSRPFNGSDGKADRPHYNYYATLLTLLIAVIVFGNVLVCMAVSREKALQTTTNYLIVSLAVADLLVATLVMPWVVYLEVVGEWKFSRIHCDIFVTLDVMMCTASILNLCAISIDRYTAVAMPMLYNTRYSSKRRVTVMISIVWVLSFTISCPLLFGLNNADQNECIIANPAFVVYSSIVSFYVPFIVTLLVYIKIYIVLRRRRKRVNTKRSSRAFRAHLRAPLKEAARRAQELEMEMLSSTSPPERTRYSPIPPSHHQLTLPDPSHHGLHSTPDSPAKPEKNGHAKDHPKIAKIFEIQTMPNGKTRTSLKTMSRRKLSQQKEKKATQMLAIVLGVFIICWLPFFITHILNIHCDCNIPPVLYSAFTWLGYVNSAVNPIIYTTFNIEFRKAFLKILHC
SMILES,Ki [1] [nM],Ki [2] [nM],Ki ([3]; cells printed in μM) [µM],Ki [4] [nM],"AUC(0-t) [5, 7] [ng·h/mL]","clearance [5, 7] [mL/min/kg]","half-life [5, 7] [min]","bioavailability ([5]; oral 3 mg/kg vs intravenous 1 mg/kg, male Wistar rats, read-out: F (Bioavailability)) [%]","AUC(0-t) [5, 8] [ng·h/mL]","Cmax [5, 8] [ng/mL]","half-life [5, 8] [min]",Kp at 1 h [6],Ki [3] [µM]
"O=C1C[C@@H]2CCCN2C(=O)N1CCCCN1CCC(c2noc3cc(F)ccc23)CC1 [Example 5, 2-{4-[4-(6-Fluoro-benzo[d]isoxazol-3-yl)-piperidin-1-yl]-butyl}-tetrahydro-pyrrolo[1,2-c]pyrimidine-1,3-dione]",14.7,0.7,> 10,7.3,226 ± 11,74 ± 3.4,30 ± 6,22 ± 9,151 ± 61,152 ± 44,42 ± 6,1.06 ± 0.46,
"O=C1C[C@@H]2CCCN2C(=O)N1CCCN1CCN(c2nsc3ccccc23)CC1 [Example 23, 2-[3-(4-benzo[d]isothiazol-3-yl-piperazin-1-yl)-propyl]tetrahydro-pyrrolo[1,2-c]pyrimidine-1,3-dione]",21.4,5.3,,22.3,,,,,,,,,0.918
"O=C1C[C@@H]2CCCN2C(=O)N1CCCN1CCC(c2noc3cc(F)ccc23)CC1 [Example 24, 2-{3-[4-(6-Fluoro-benzo[d]isoxazol-3-yl)-piperidin-1-yl]-propyl}-tetrahydro-pyrrolo[1,2-c]pyrimidine-1,3-dione]",1690,7.1,> 10,103,,,,,,,,,
"O=C1C[C@@H]2CCCN2C(=O)N1CCCN1CCC(c2c[nH]c3ccc(F)cc23)CC1 [Example 25, 2-{3-[4-(5-Fluoro-1H-indol-3-yl)-piperidin-1-yl]-propyl}-tetrahydro-pyrrolo[1,2-c]pyrimidine-1,3-dione]",58.6,195,,23.8,,,,,,,,,0.298
"COC(=O)N1CCN2C(=O)N(CCCCN3CCN(c4nsc5ccccc45)CC3)C(=O)C[C@@H]2C1 [Example 33, 7-[4-(4-Benzo[d]isothiazol-3-yl-piperazin-1-yl)-butyl]-6,8-dioxo-octahydro-pyrazino[1,2-c]pyrimidine-2-carboxylic acid methyl ester]",0.3,0.8,,1.7,,,,,,,,,0.0611
"COC(=O)N1CCN2C(=O)N(CCCCN3CCN(c4nsc5ccccc45)CC3)C(=O)CC2C1 (centres unmarked) [Example 34, 7-[4-(4-Benzo[d]isothiazol-3-yl-piperazin-1-yl)-butyl]-6,8-dioxo-octahydro-pyrazino[1,2-c]pyrimidine-2-carboxylic acid methyl ester fumarate]",1.3,0.5,,2.4,,,,,,,,,0.152
"COC(=O)N1CCN2C(=O)N(CCCCN3CCC(c4noc5cc(F)ccc45)CC3)C(=O)C[C@@H]2C1 [Example 35, 7-{4-[4-(6-Fluoro-benzo[d]isoxazol-3-yl)-piperidin-1-yl]-butyl}-6,8-dioxo-octahydro-pyrazino[1,2-c]pyrimidine-2-carboxylic acid methyl ester]",45.7,4.8,,4.7,,,,,,,,,0.975
"COC(=O)N1CCN2C(=O)N(CCCCN3CCC(c4noc5cc(F)ccc45)CC3)C(=O)C[C@@H]2C1 [Example 36, 7-{4-[4-(6-Fluoro-benzo[d]isoxazol-3-yl)-piperidin-1-yl]-butyl}-6,8-dioxo-octahydro-pyrazino[1,2-c]pyrimidine-2-carboxylic acid methyl ester fumarate]",130,2.2,,3.3,,,,,,,,,1.48
"CC(=O)N1CCN2C(=O)N(CCCCN3CCN(c4nsc5ccccc45)CC3)C(=O)C[C@@H]2C1 [Example 37, 2-Acetyl-7-[4-(4-benzo[d]isothiazol-3-yl-piperazin-1-yl)-butyl]-hexahydro-pyrazino[1,2-c]pyrimidine-6,8-dione]",0.3,1.5,,8.2,,,,,,,,,1.1
"CC(C)N1CCN2C(=O)N(CCCCN3CCN(c4nsc5ccccc45)CC3)C(=O)C[C@H]2C1 [Example 40, 7-[4-(4-Benzo[d]isothiazol-3-yl-piperazin-1-yl)-butyl]-2-isopropyl-hexahydro-pyrazino[1,2-c]pyrimidine-6,8-dione fumarate]",0.5,1.6,,5,,,,,,,,,1.25
"O=C1C[C@@H]2CCCN2C(=O)N1CCCCN1CCC(c2noc3ccccc23)CC1 [Example 42, 2-{4-[4-(Benzo[d]isoxazol-3-yl)-piperidin-1-yl]-butyl}-tetrahydro-pyrrolo[1,2-c]pyrimidine-1,3-dione, oxalate]",8.7,11.6,> 10,37.3,,,,,,,,,
"O=C1C[C@@H]2CCCN2C(=O)N1CCCN1CCC(c2noc3ccccc23)CC1 [Example 44, 2-[3-(4-Benzo[d]isoxazol-3-yl-piperidin-1-yl)-propyl]-tetrahydro-pyrrolo[1,2-c]pyrimidine-1,3-dione, oxalate]",531,59.9,> 10,119,,,,,,,,,
